{"source": "patent US11634442B2", "about": "“Methods for the purification of L-glufosinate” (BASF SE, priority 2017, dated 2023)", "assay": "Solid form stability on storage over desiccant (XRPD, ion chromatography)", "method": "X-ray Power Diffraction (XRPD), Reflection Mode: XRPD patterns were collected with a PANalytical X'Pert PRO MPD diffractometer using an incident beam of Cu Kα radiation produced using a long, fine-focus source and a nickel filter. The diffractometer was configured using the symmetric Bragg-Brentano geometry. […] A specimen of the sample was prepared as a thin, circular layer centered on a silicon zero-background substrate. Antiscatter slits (SS) were used to minimize the background generated by air. Soller slits for the incident and diffracted beams were used to minimize broadening from axial divergence. Diffraction patterns were collected using a scanning position-sensitive detector (X'Celerator) located 240 mm from the sample and Data Collector software v. 2.2b.\nXRPD, Transmission Mode: XRPD patterns were collected with a PANalytical X'Pert PRO MPD diffractometer using an incident beam of Cu radiation produced using an Optix long, fine-focus source. An elliptically graded multilayer mirror was used to focus Cu Kα X-rays through the specimen and onto the detector. […] A specimen of the sample was sandwiched between 3-μm-thick films and analyzed in transmission geometry. A beam-stop, short antiscatter extension, antiscatter knife edge were used to minimize the background generated by air. Soller slits for the incident and diffracted beams were used to minimize broadening from axial divergence. Diffraction patterns were collected using a scanning position-sensitive detector (X'Celerator) located 240 mm from the specimen and Data Collector software v. 2.2b.\nForm B was characterized by ^1H NMR, IC, DSC, and TGA."}
{"smiles": "CP(=O)(O)CC[C@H](N)C(=O)O.N", "note": "[Form A]", "values": [{"measurement": "form change by XRPD upon storage over desiccant", "setting": "Form A from 93/7 v/v methanol/water slurry, storage time not given", "value": "converted to Form B with minor additional peaks"}, {"measurement": "overall assessment of form stability", "setting": "prone to conversion to Form B", "value": "metastable"}]}
{"smiles": "CP(=O)(O)CC[C@H](N)C(=O)O", "note": "[Form B]", "values": [{"measurement": "change in XRPD pattern upon storage over desiccant for 47 days", "setting": "47 days over desiccant", "value": "No significant changes"}]}
{"smiles": "CP(=O)(O)CC[C@H](N)C(=O)O.N", "note": "[Form C]", "values": [{"measurement": "ammonium content by IC after storage under desiccant for 36 days", "setting": "sample of Form C with minor Form A, 6.3 wt % initially", "value": 3.2, "unit": "wt %"}, {"measurement": "form change by XRPD after storage under desiccant for 36 days", "setting": "sample of Form C with minor Form A, 36 days under desiccant", "value": "conversion to Form B with minor Form A and a few minor additional peaks"}]}
{"smiles": "CP(=O)(O)CC[C@H](N)C(=O)O", "note": "[Form D]", "values": [{"measurement": "change in XRPD pattern upon storage over desiccant", "setting": "sample of Form D+minor Form A, storage time not given", "value": "No significant changes"}]}
